In PubChem BioAssay AID651630 (Sanford-Burnham Center for Chemical Genomics, 2012) one finds IC50 and IC50 cytotoxicity (DAPI nuclear signal decrease) data, which are given here for 26 compounds.

One assay relates to TAG. Put plainly: triacylglycerol accumulation inhibitor potency, dose response, cell-based, panel, Nile Red and DAPI fluorescence, H9c2 (AID 651630).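 Also: cells exposed to compound overnight before fixation and staining.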 Particulars: H9c2 cells, Nile Red TAG fluorescence, oleic acid.
Another assay relates to DAPI. The description is as above. Particulars: H9c2 cells, DAPI nuclear fluorescence (cytotoxicity counter-readout), oleic acid.

pIC50: −log10 of the molar value. Activity calls are given as the source filed them.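 The calls were made as follows: active = lipid-stain IC50 at or below a set limit, with nuclear-stain toxicity IC50 at least five times higher; inactive = the rest.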 A value given as a limit tells only on which side of the number the result lay.

`C=CCC[C@@H](Cc1ccc(F)cc1)C(=O)OC[C@@H](Cc1c[nH]c2ccccc12)NC(=O)[C@@H](CC=C)CC(=O)N(CCO)Cc1ccccc1`: the pIC50 was 5.08 in the assay on TAG (mean of runs), 5.15 with TAG (run 1) and 5.03 with TAG (run 2). Further, the IC50 cytotoxicity (DAPI nuclear signal decrease) in the assay with DAPI (mean of runs) is > 25 µM (inactive); in the assay on DAPI (run 1), more than 25 µM; in the assay with DAPI (run 2), more than 25 µM.
On to `Cc1cc(C)c(NC(=O)CSc2nc3ccc(NC(=O)CSc4nnnn4Cc4ccccc4)cc3s2)c(C)c1`, for which the IC50 in the assay on TAG (mean of runs) is > 25 µM (inactive). Also, the negative-log IC50 (pIC50) with TAG (run 1) and in the assay with TAG (run 2) was less than 4.60 in each case. For the same compound, the IC50 cytotoxicity (DAPI nuclear signal decrease) in the assay with DAPI (mean of runs) is > 25 µM (inactive); in the assay with DAPI (run 1) it was more than 25 µM; with DAPI (run 2), more than 25 µM.
Regarding `Oc1ccc(C[C@H]2CNC(=S)N2CC2CCCN2C[C@H](Cc2ccc(O)cc2)N2C[C@H](Cc3ccc(O)cc3)N(CC3CCCCC3)C2=S)cc1` (stereo not given in full), the pIC50 in the assay on TAG (mean of runs) was 5.03; with TAG (run 1), 5.06; in the assay on TAG (run 2), 5.00. The IC50 cytotoxicity (DAPI nuclear signal decrease) with DAPI (mean of runs) was > 25 µM (inactive); in the assay on DAPI (run 1) it was more than 25 µM; in the assay with DAPI (run 2), more than 25 µM.
On to `CCOc1ccc(S(=O)(=O)NCc2ccccn2)cc1NC(=O)c1ccccc1`, for which the IC50 with TAG (mean of runs) is > 25 µM (inactive). For the same compound, the pIC50 in the assay with TAG (run 1) and in the assay on TAG (run 2) was less than 4.60 throughout. The IC50 cytotoxicity (DAPI nuclear signal decrease) in the assay with DAPI (mean of runs) was > 25 µM (inactive); in the assay on DAPI (run 1) it was more than 25 µM; in the assay on DAPI (run 2), more than 25 µM.
`OCCCn1c(C2CCCN2c2nc(-c3ccc(F)cc3)cs2)nc2cc(C(F)(F)F)ccc21` (stereo not given): the negative logarithm of the IC50 (pIC50) was 4.85 in the assay on TAG (mean of runs), 4.85 in the assay on TAG (run 1) and 4.86 in the assay with TAG (run 2). Further, the IC50 cytotoxicity (DAPI nuclear signal decrease) was > 25 µM (inactive) in the assay on DAPI (mean of runs), more than 25 µM with DAPI (run 1) and more than 25 µM in the assay with DAPI (run 2).
As for `Cc1ccc2[nH]c(-c3ccccc3)cc(=O)c2c1`, in the assay with TAG (mean of runs), the IC50 is > 25 µM (inactive). In addition, the pIC50 in the assay on TAG (run 1) and with TAG (run 2) was less than 4.60 in each case. Further, the IC50 cytotoxicity (DAPI nuclear signal decrease) in the assay on DAPI (mean of runs) was > 25 µM (inactive); in the assay on DAPI (run 1), more than 25 µM; in the assay with DAPI (run 2), more than 25 µM.
For the compound `C=CC[C@@H](CC(=O)N(CCO)Cc1ccccc1)C(=O)N[C@H](COC(=O)[C@@H](CC=C)CC(=O)OC(C)(C)C)C(C)(C)C`, the pIC50 with TAG (mean of runs) is 5.47; in the assay with TAG (run 1), 5.37; with TAG (run 2) it was 5.61. Besides, the IC50 cytotoxicity (DAPI nuclear signal decrease) in the assay with DAPI (run 1) and in the assay on DAPI (run 2) was more than 25 µM throughout.
For the compound `CC(C)C[C@@H](CN1CCCC1CN1C(=S)NC[C@@H]1Cc1ccc(O)cc1)N1C[C@H](Cc2ccccc2)N(CC2CCCCC2)C1=S` (stereo not given in full), the IC50 in the assay with TAG (mean of runs) was > 25 µM (inactive). The pIC50 in the assay with TAG (run 1) and in the assay with TAG (run 2) was less than 4.60 in each case. In addition, the figures for the IC50 cytotoxicity (DAPI nuclear signal decrease) in the assay on DAPI (mean of runs), in the assay on DAPI (run 1) and with DAPI (run 2) were 21.8 µM (inactive), 21.7 µM and 21.8 µM, respectively.
Take `COc1ccc(-c2nc3ccc(Cl)cn3c2NC2CCCCC2)cc1SC1CCCCC1`: the pIC50 in the assay on TAG (mean of runs) was 5.46; with TAG (run 1), 5.62; in the assay on TAG (run 2), 5.35. For the same compound, the IC50 cytotoxicity (DAPI nuclear signal decrease) with DAPI (run 1) and in the assay on DAPI (run 2) was more than 25 µM each time.
For the compound `CCOc1ccc2nc(NC(=O)C3CCCN(S(=O)(=O)c4c(C)noc4C)C3)sc2c1` (stereo not given), the negative-log IC50 (pIC50) in the assay on TAG (mean of runs) is 5.30; with TAG (run 1) it was 5.39; in the assay with TAG (run 2), 5.22. Moreover, the IC50 cytotoxicity (DAPI nuclear signal decrease) in the assay with DAPI (mean of runs) is > 25 µM (inactive); in the assay with DAPI (run 1), more than 25 µM; in the assay with DAPI (run 2) it was more than 25 µM.
In the case of `CCOc1ccc(CCNC(=O)CCc2nc(-c3ccc(C)cc3)no2)cc1OCC`, the IC50 in the assay on TAG (mean of runs) was > 25 µM (inactive). Further, the pIC50 in the assay on TAG (run 1) and in the assay with TAG (run 2) was less than 4.60 each time. Further, the IC50 cytotoxicity (DAPI nuclear signal decrease) with DAPI (mean of runs) was > 25 µM (inactive); with DAPI (run 1), more than 25 µM; with DAPI (run 2), more than 25 µM.
Regarding `COc1ccccc1-c1cc(C(F)(F)F)nc(S(=O)(=O)CCCC(=O)NC(C)C)n1`, the negative-log IC50 (pIC50) in the assay with TAG (mean of runs) was 4.95; in the assay with TAG (run 1), 4.87; in the assay on TAG (run 2) it was 5.06. Besides, the IC50 cytotoxicity (DAPI nuclear signal decrease) in the assay with DAPI (mean of runs) was 18.4 µM (inactive); in the assay with DAPI (run 1), 19.9 µM; with DAPI (run 2) it was 17 µM.
On to `Cc1onc(-c2ccccc2)c1C(=O)Nc1cc(C(F)(F)F)ccc1N1CCOCC1`, for which the IC50 in the assay on TAG (mean of runs) is 20.1 µM (inactive). The negative-log IC50 (pIC50) with TAG (run 1) is 4.81; with TAG (run 2), 4.61. Further, the IC50 cytotoxicity (DAPI nuclear signal decrease) in the assay on DAPI (mean of runs) was > 25 µM (inactive); with DAPI (run 1) it was more than 25 µM; in the assay on DAPI (run 2), more than 25 µM.
`COc1cc(C2C3=C(COC3=O)Oc3cc4c(cc32)OCO4)ccc1O` (stereo not given): the IC50 in the assay on TAG (mean of runs) is 15.6 µM (inactive). For the same compound, the negative-log IC50 (pIC50) in the assay with TAG (run 1) was 4.83; in the assay on TAG (run 2), 4.79. The figures for the IC50 cytotoxicity (DAPI nuclear signal decrease) in the assay with DAPI (mean of runs), with DAPI (run 1) and in the assay on DAPI (run 2) were > 25 µM (inactive), more than 25 µM and more than 25 µM, respectively.
Regarding `Cc1cc(N2CCN(Cc3cn(C)nc3-c3ccccc3F)CC2)cc(C)n1`, the negative logarithm of the IC50 (pIC50) in the assay on TAG (mean of runs) is 4.88; in the assay on TAG (run 1) it was 4.95; in the assay with TAG (run 2), 4.82. Moreover, the values for the IC50 cytotoxicity (DAPI nuclear signal decrease) with DAPI (mean of runs), in the assay with DAPI (run 1) and in the assay with DAPI (run 2) were > 25 µM (inactive), more than 25 µM and more than 25 µM, respectively.
With `CCOc1ccccc1C1C2=C(COC2=O)Nc2cc3c(cc21)OCO3` (stereo not given), the pIC50 with TAG (run 1) was less than 4.60; with TAG (run 2), more than 6.11. Also, the IC50 cytotoxicity (DAPI nuclear signal decrease) is > 25 µM (inactive) with DAPI (mean of runs), more than 25 µM with DAPI (run 1) and more than 25 µM in the assay with DAPI (run 2).
With `COc1cc(-c2nc3c(c(C)nn3-c3ccccc3)c3cc(OC)c(OC)cc23)ccc1O`, the IC50 with TAG (mean of runs) is > 25 µM (inactive). For the same compound, the pIC50 in the assay with TAG (run 1) and with TAG (run 2) was less than 4.60 each time. Further, the IC50 cytotoxicity (DAPI nuclear signal decrease) with DAPI (mean of runs) is > 25 µM (inactive); with DAPI (run 1), more than 25 µM; with DAPI (run 2) it was more than 25 µM.
`CCCCC(=NCCc1c(C)[nH]c2ccc(OC)cc12)C1=C(O)CC(c2ccccc2)CC1=O` (stereo not given): the pIC50 in the assay with TAG (run 1) is 4.79; in the assay with TAG (run 2), less than 4.60. For the same compound, the IC50 cytotoxicity (DAPI nuclear signal decrease) in the assay on DAPI (mean of runs) was > 25 µM (inactive); with DAPI (run 1), more than 25 µM; in the assay on DAPI (run 2), more than 25 µM.
For `COc1cc(NC(=O)Nc2nc(C(N)Cc3ccc(C(F)(F)F)cc3)cs2)cc(OC)c1OC` (stereo not given), the figures for the negative logarithm of the IC50 (pIC50) in the assay on TAG (mean of runs), with TAG (run 1) and in the assay on TAG (run 2) were 5.19, 5.11 and 5.28, respectively. Besides, the IC50 cytotoxicity (DAPI nuclear signal decrease) in the assay with DAPI (run 1) was 24.9 µM; in the assay with DAPI (run 2) it was more than 25 µM.
Take `COc1ccc(OC)c(NS(=O)(=O)c2ccc(N3CCCC3=O)cc2)c1`: the IC50 with TAG (mean of runs) is > 25 µM (inactive). For the same compound, the pIC50 in the assay on TAG (run 1) and with TAG (run 2) was less than 4.60 in each case. In addition, the values for the IC50 cytotoxicity (DAPI nuclear signal decrease) in the assay with DAPI (mean of runs), in the assay on DAPI (run 1) and in the assay on DAPI (run 2) were > 25 µM (inactive), more than 25 µM and more than 25 µM, respectively.
As to `CC(C)(C)OC(=O)N(CCc1ccccc1)Cc1ccc(OCc2cccc(NC(=O)/C=C/c3ccccc3)c2)cc1`, the negative-log IC50 (pIC50) was 5.12 in the assay on TAG (mean of runs), 5.10 with TAG (run 1) and 5.14 in the assay on TAG (run 2). Also, the values for the IC50 cytotoxicity (DAPI nuclear signal decrease) in the assay with DAPI (mean of runs), with DAPI (run 1) and in the assay with DAPI (run 2) were > 25 µM (inactive), more than 25 µM and more than 25 µM, respectively.
Consider `COc1ccc2[nH]c3c(c2c1)CCN1C(=O)C(CC(=O)NCC24CC5CC(CC(C5)C2)C4)C[C@H](C(=O)N2CCOCC2)[C@@]31CCC1CCCC1` (stereo not given in full), for which the pIC50 was 5.30 in the assay on TAG (run 1) and less than 4.60 with TAG (run 2). Moreover, the IC50 cytotoxicity (DAPI nuclear signal decrease) in the assay with DAPI (mean of runs) was > 25 µM (inactive); in the assay with DAPI (run 1), more than 25 µM; with DAPI (run 2), more than 25 µM.
For the compound `Cc1occc1C(=O)NC(C)CCc1ccccc1` (stereo not given), in the assay on TAG (mean of runs), the IC50 is > 25 µM (inactive). Moreover, the negative-log IC50 (pIC50) in the assay with TAG (run 1) and with TAG (run 2) was less than 4.60 in each case. The IC50 cytotoxicity (DAPI nuclear signal decrease) is > 25 µM (inactive) in the assay with DAPI (mean of runs), more than 25 µM in the assay on DAPI (run 1) and more than 25 µM with DAPI (run 2).
Consider `CCOc1cc(C(=O)N/N=C/c2cn(-c3ccccc3)nc2-c2cc3ccccc3o2)cc(OCC)c1OCC`, for which the pIC50 with TAG (mean of runs) is 4.99; with TAG (run 1) it was 5.03; with TAG (run 2), 4.95. In addition, the IC50 cytotoxicity (DAPI nuclear signal decrease) with DAPI (mean of runs) is > 25 µM (inactive); in the assay with DAPI (run 1) it was more than 25 µM; in the assay on DAPI (run 2), more than 25 µM.
Regarding `CCOc1c(Cl)cc(/C=C/C(=O)N(CC)CC(=O)NCc2cccs2)cc1OC`, the IC50 with TAG (mean of runs) was 17 µM (inactive). Moreover, the pIC50 with TAG (run 1) is 4.72; in the assay with TAG (run 2) it was 4.83. The IC50 cytotoxicity (DAPI nuclear signal decrease) is > 25 µM (inactive) in the assay on DAPI (mean of runs), more than 25 µM in the assay on DAPI (run 1) and more than 25 µM in the assay with DAPI (run 2).
In the case of `Cc1ccc(CN(C(=O)c2csnn2)C(C(=O)NC2CCCC2)c2ccc(C)o2)cc1` (stereo not given), in the assay with TAG (mean of runs), the IC50 was > 25 µM (inactive). The pIC50 in the assay on TAG (run 1) and with TAG (run 2) was less than 4.60 each time. Besides, the IC50 cytotoxicity (DAPI nuclear signal decrease) in the assay on DAPI (mean of runs) was > 25 µM (inactive); in the assay with DAPI (run 1) it was more than 25 µM; with DAPI (run 2) it was more than 25 µM.

A word on the pIC50: it is the IC50 on a negative log10 scale, so that one unit is a factor of ten. For orientation: IC50 means the concentration that gives 50% inhibition.
